In US5760036A, “Aminediol protease inhibitors” (E. R. Squibb & Sons, Inc., priority 1995, dated 1998):
Read-outs that look alike come from different tables or passages of the source.

Assays:
HIV protease = biological target: T1, HIV protease (Human immunodeficiency virus type 1 group M subtype B, UniProt P04585); assay: HIV Protease Assay; assay type: biochemical
T1 construct: and purified protease
Procedure, shortened: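 Purified protease cleaved 450 μM octapeptide substrate in 50 mM sodium acetate pH 5.5 with 100 μg/ml BSA for 30 minutes at 37° C; product analyzed by reverse-phase HPLC at UV220 after H3PO4 quench. Inhibitors tested at final 10 μM with 4% DMSO.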

[1] = system: RF strain of HIV (CEM-SS cells); assay: Cell Culture Anti-HIV Activity (cell viability, formazan); assay type: cell-based; settings: CEM-SS cells, RF strain of HIV, multiplicity of infection 0.04, 6 days at 37° C., 450 nm, read-out: HIV (CEM Cells) IC50
Procedure, shortened: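 CEM-SS cells (5000/well) infected with HIV RF at MOI 0.04, exposed to half-log serial compound dilutions, incubated 6 days at 37° C. Viability read by tetrazolium reduction to formazan, absorbance 450 nm. IC50 is the concentration raising formazan in infected cells to 50% of uninfected, drug-free cells.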

[2] = Human immunodeficiency virus 1, CEM-SS, 144 h
[3] = pH 5.5, 10 μM inhibitor, 4% DMSO, 450 μM substrate, pH 5.5, 30 minutes at 37° C., RP-HPLC, read-out: HIV Protease % Inhibition at 10 μM

| inhibition at 10 µM (HIV protease; pH 5.5, read-out: HIV Protease % Inhibition at 10 μM) | inhibition at 10 µM (HIV protease; [3]) | SMILES | IC50 [1, 2] | IC50 [1] |
| --- | --- | --- | --- | --- |
| 99% |  | CC(C)(C)OC(=O)N[C@@H](Cc1ccccc1)[C@H](O)CNC[C@@H](O)[C@H](Cc1ccc(OCCn2ccnc2)cc1)NC(=O)OC(C)(C)C [Compound 290, [1S-[1R*,2S*(2S*,3R*)]]-[3-[[3-[[(1,1-Dimethylethoxy)carbonyl]amino]-2-hydroxy-4-[4-[2-(1H-imidazol-1-yl)-ethoxy]phenyl]butyl]amino]-2-hydroxy-1-(phenylmethyl)-propyl]carbamic acid, 1,1-dimethylethyl ester] | 60 nM |  |
|  | 100% | CC(C)(C)OC(=O)N[C@@H](Cc1ccccc1)[C@H](O)CNC[C@@H](O)[C@H](Cc1ccccc1)NC(=O)[C@@H](NC(=O)OCc1ccccc1)C(C)(C)C [Compound 88, [1S-[1R*-[1R*,2S*(2S*,3R*)]]]-2,2-Dimethyl-1-[[[3-[[3-[[(1,1-Dimethylethoxcy)-carbonylamino]-2-hydroxy-4-phenylbutyl]amino]-2-hydroxy-1-(phenylmethyl),propyl]amino]-carbonyl]propoyl]carbamic acid, phenylmethyl ester] | 30 nM |  |
|  | 95% | CC(C)(C)OC(=O)N[C@@H](Cc1ccccc1)[C@H](O)CNC[C@@H](O)[C@H](Cc1ccccc1)NC(=O)OCCO [Compound 241, [R-(R*,S*)]-[Iminobis[2-hydroxy-1-(phenylmethyl)-3,1-propanediyl)]biscarbamic acid, 1,1-dimethylethyl-2-hydroxyethyl ester] | 280 nM |  |
|  | 100% | CC(C)[C@H](NC(=O)N(C)Cc1ccccn1)C(=O)N[C@@H](Cc1ccccc1)[C@H](O)CNC[C@@H](O)[C@H](Cc1ccccc1)NC(=O)OC(C)(C)C [Compound 76, [S-[1R*,2S*(2S*,3R*)]]-N-[3-[[3-[[(1,1-Dimethylethoxy)carbonylamino]-2-hydroxy-4-phenylbutyl]amino]-2-hydroxy-1-(phenylmethyl)propyl]-N^2 [[methyl(2-pyridinyl-methyl)amino]carbonyl]-L-valinamide] | 600 nM |  |
|  | 99% | CC(C)(C)OC(=O)N[C@@H](Cc1ccccc1)[C@H](O)CNC[C@@H](O)[C@H](Cc1ccc(OCCN2CCOC2=O)cc1)NC(=O)OC(C)(C)C [Compound 343, [1S-[1R*,2S*(2S*,3R*)]]-[1-[[[3-[[(1,1-Dimethylethoxy)carbonyl]amino]-2-hydroxy-4-[4-[2-(2-oxo-3-oxazolidinyl)ethoxy]phenyl]butyl]amino]-2-hydroxy-1-(phenylmethyl)propyl]carbamic acid, 1,1-dimethylethyl ester] | 50 nM |  |
|  | 99% | CC(C)(C)OC(=O)N[C@@H](Cc1ccccc1)[C@H](O)CNC[C@@H](O)[C@H](Cc1ccccc1)NC(=O)C(O)C(F)(F)F (single isomer, unassigned; isomer a) [Compound 271, [1S-[1R*,2S*(2S*,3R*)]]-[2-Hydroxy-1-(phenylmethyl)-3-[[2-hydroxy-4-phenyl-3-[(3,3,3-trifluoro-2-hydroxy-1-oxopropyl)amino]butyl]amino]-propyl]carbamic acid, 1,1-dimethylethyl ester (isomer A)] | 60 nM |  |
|  | 99% | CCC(=O)N[C@H](C(=O)N[C@@H](Cc1ccccc1)[C@H](O)CNC[C@@H](O)[C@H](Cc1ccccc1)NC(=O)OC(C)(C)C)C(C)C (relative stereo) [Compound 248, [1R*,2S*,(2S*,3R*)]-N-[3-[[3-[[(1,1-Dimethylethoxy)carbonyl]amino]-2-hydroxy-4-phenylbutyl]amino]-2-hydroxy-1-(phenylmethyl)propyl]-N^2-(1-oxopropyl)-L-valinamide] | 230 nM |  |
|  | 88% | CC(C)(C)OC(=O)N[C@@H](Cc1ccccc1)[C@H](O)CNC[C@@H](O)[C@H](Cc1ccccc1)NC(=O)OC1CCc2ccccc21 (stereo partly drawn) [Compound 144, [1S-(1R*,2S*)]-[Iminobis[2-hydroxy-1-(phenylmethyl)-3,1-propanediyl)]-bis[carbamic acid], 1,1-dimethylethyl-2,3-dihydro-1H-inden-1-yl ester] | 1000 nM |  |
|  | 95% | CC(C)(C)OC(=O)N[C@@H](Cc1ccccc1)[C@H](O)CNC[C@@H](O)[C@H](Cc1ccccc1)NC(=O)C(NC(=O)OCc1ccccc1)C(C)(C)O (single isomer, unassigned; isomer a) [Compound 301, [1S-[1R*,2S*(2S*,3R*)]]-[1-[[[3-[[(1,1-Dimethylethoxy)carbonyl]amino]-2-hydroxy-4-phenylbutyl]amino]-2-hydroxy-1-(phenylmethyl)propyl]amino]carbonyl]-2-hydroxy-2-methylpropyl]carbamic acid, phenylmethyl ester, isomer A] | 2400 nM |  |
|  | 100% | CC(C)[C@H](NC(=O)NCc1nc2ccccc2[nH]1)C(=O)N[C@@H](Cc1ccccc1)[C@H](O)CNC[C@@H](O)[C@H](Cc1ccccc1)NC(=O)OC(C)(C)C (relative stereo) [Compound 273, [1R*,2S*(2S*,3R*)]-N^2-[[(1H-Benzimidazol-2-ylmethyl)amino]carbonyl]-N-[3-[[3-[[(1,1-dimethylethoxy)carbonyl]amino]-2-hydroxy-4-phenylbutyl]amino]-2-hydroxy-1-(phenylmethyl)propyl]-L-valinamide] | 1700 nM |  |
|  | 100% | CC(C)[C@H](NC(=O)OCc1ccc2ccccc2n1)C(=O)N[C@@H](Cc1ccccc1)[C@H](O)CNC[C@@H](O)[C@H](Cc1ccccc1)NC(=O)OC(C)(C)C (relative stereo) [Compound 281, [1R*,2S*(2S*,3R*)]]-N-[3-[[1,1-Dimethylethoxy)carbonyl]amino]-2-hydroxy-4-phenylbutyl]amino]-2-hydroxy-1-(phenylmethyl)-proyl]-N^2-[(2-quinolinylmethoxy)carbonyl]-L-valinamide] | 290 nM |  |
|  | 20% | CC(C)[C@H](NC(=O)OC(C)(C)C)C(=O)N[C@@H](Cc1ccccc1)[C@H](O)CNC[C@@H](O)[C@H](Cc1ccccc1)NC(=O)[C@@H](NC(=O)OC(C)(C)C)C(C)C [Compound 34, [S-(1R*,2S*)]-N,N'-[Iminobis[2-hydroxy-1-(phenylmethyl)-3,1-propanediyl]]bis[N^2-[(1,1-dimethylethoxy)carbonyl]-L-valinamide]] | > 9000 nM |  |
|  | 99% | CC(C)[C@H](NC(=O)c1nc2ccccc2[nH]1)C(=O)N[C@@H](Cc1ccccc1)[C@H](O)CNC[C@@H](O)[C@H](Cc1ccccc1)NC(=O)OC(C)(C)C [Compound 101, [S-[1R*,2S*(2S*,3R*)]-N-[3-[[3-[[(1,1-Dimethylethoxy)carbonyl]amino]-2-hydroxy-4-phenylbutyl]amino]-2-hydroxy-1-(phenylmethyl)propyl]-N^2-[(1H-benzimidazol-2-yl)-carbonyl]-L-valinamide]] | 140 nM |  |
|  | 99% | CC(C)(C)OC(=O)N[C@@H](Cc1ccccc1)[C@H](O)CNC[C@@H](O)[C@H](Cc1ccccc1)NC(=O)[C@@H](NC(=O)OCc1nc(-c2ccccc2)co1)C(C)(C)C [Compound 345, [S-(1R*,2S*(2S*,3R*)]]-[2,2-Dimethyl-1-[[[3-[[3-[[1,1-dimethylethoxy)-carbonyl]amino]-2-hydroxy-4-phenylbutyl]amino]-2-hydroxy-1-(phenylmethyl)propyl]amino]-carbonyl]propyl]carbamic acid, (4-phenyl-2-oxazolyl)methyl ester] | 330 nM |  |
|  | 100% | CC(C)(C)OC(=O)N[C@@H](Cc1ccccc1)[C@H](O)CNC[C@@H](O)[C@H](Cc1ccccc1)NC(=O)C(NC(=O)OCc1ccccc1)C(C)(C)CO (single isomer, unassigned; isomer a) [Compound 308, [1S-[1R*,2S*(2S*,3R*)]]-1-[[[3-[[(1,1-Dimethylethoxy)carbonyl]amino]-2-hydroxy-4-phenylbutyl]amino]-2-hydroxy-1-(phenylmethyl)propyl]amino]carbonyl-2-(hydroxymethyl)-2-methylpropyl] carbamic acid, phenylmethyl ester, isomer A] |  | 20 nM |
|  | 85% | CC(C)(C)OC(=O)N[C@@H](Cc1ccccc1)[C@H](O)CNC[C@@H](O)[C@H](Cc1ccccc1)NC(=O)OC(C)(C)c1ccccc1 [Compound 156, [1S-(1R*,2S*)]-2-hydroxy-1-(phenylmethyl)-3,1-propanediyl)biscarbamic acid, 1,1-dimethylethyl-1-methyl-1-phenylethyl ester] | > 6000 nM |  |
|  | 5% | CN(CC(O)C(Cc1ccccc1)NC(=O)OC(C)(C)C)CC(O)C(Cc1ccccc1)NC(=O)OC(C)(C)C (stereo not drawn) [Compound 200, [1S-[1R*,2R*(1R*)]]-[3-[[3-[[(1,1-Dimethylethoxy)carbonyl]-amino]-2-hydroxy-4-phenylbutyl]-methylamino]-2-hydroxy-1-(phenylmethyl)propyl]-carbamic acid, 1,1-dimethylethyl ester] | > 15000 nM |  |
